Where only a bound is given, the exact number is not on record here.

Our source for the IC50 values is patent publication US12668594B2, “TYK2 inhibitors and uses thereof” (Sudo Biosciences Limited, priority 2020, dated 2026).

Assay [1] has as its target T1, TYK2 (Homo sapiens, UniProt P29597). In words: HEK-Blue IFNα/β reporter assay (SEAP) for TYK2 pseudokinase inhibition. In kind it is cell-based. The following applies: HEK-Blue IFNα/β cells, 1 ng/mL human recombinant IFNα. The method, then: (§1) HEK-Blue™ IL-23 and IFNα/β cells with a stably-integrated cytokine receptor and STAT3 or STAT1 express STAT-inducible secreted embryonic alkaline phosphatase (SEAP) reporter gene upon cytokine stimulation. These cells are plated in DMVEM (Gibco) containing 10% heat-inactivated FBS (Gibco) and 100 U/mL PenStrep (Gibco) at 37° C. under […] conditions for 20-22 hours. The cells are then pretreated with serially diluted test compounds for 60 min prior to stimulation with either 10 ng/mL human recombinant IL-23 (Miltenyl Biotech) or 1 ng/mL human recombinant IFNα (InvivoGen) for 22-24 hours for IL-23 or 16-18 h for IFNα. SEAP induction is measured using the QUANTI Blue™ Solution (InvivoGen) according to the manufacturer's instructions. Inhibition data are calculated by comparison to no inhibitor control wells for 000 inhibition and non-stimulated control wells for 10000 inhibition. Dose response curves are generated to determine the concentration required to inhibit 5000 of cellular response (IC50) as derived by non-linear regression analysis.
On the technique in general: In a reporter assay the amount or activity of a reporter protein is the signal.

Assay [2] concerns the target T1, TYK2. Briefly: HEK-Blue IL-23 reporter assay (SEAP) for TYK2 pseudokinase inhibition. The following applies: HEK-Blue IL-23 cells, 10 ng/mL human recombinant IL-23, SEAP reporter; read-out: IL23 IC50. On the set-up: HEK-Blue™ IL-23 and IFNα/β cells with a stably-integrated cytokine receptor and STAT3 or STAT1; host or cells: HEK-Blue IL-23 / HEK-Blue IFNα/β cells (HEK293 background). The assay is classed as cell-based. The method, then: as §1

T1 sequence (P29597 whole entry): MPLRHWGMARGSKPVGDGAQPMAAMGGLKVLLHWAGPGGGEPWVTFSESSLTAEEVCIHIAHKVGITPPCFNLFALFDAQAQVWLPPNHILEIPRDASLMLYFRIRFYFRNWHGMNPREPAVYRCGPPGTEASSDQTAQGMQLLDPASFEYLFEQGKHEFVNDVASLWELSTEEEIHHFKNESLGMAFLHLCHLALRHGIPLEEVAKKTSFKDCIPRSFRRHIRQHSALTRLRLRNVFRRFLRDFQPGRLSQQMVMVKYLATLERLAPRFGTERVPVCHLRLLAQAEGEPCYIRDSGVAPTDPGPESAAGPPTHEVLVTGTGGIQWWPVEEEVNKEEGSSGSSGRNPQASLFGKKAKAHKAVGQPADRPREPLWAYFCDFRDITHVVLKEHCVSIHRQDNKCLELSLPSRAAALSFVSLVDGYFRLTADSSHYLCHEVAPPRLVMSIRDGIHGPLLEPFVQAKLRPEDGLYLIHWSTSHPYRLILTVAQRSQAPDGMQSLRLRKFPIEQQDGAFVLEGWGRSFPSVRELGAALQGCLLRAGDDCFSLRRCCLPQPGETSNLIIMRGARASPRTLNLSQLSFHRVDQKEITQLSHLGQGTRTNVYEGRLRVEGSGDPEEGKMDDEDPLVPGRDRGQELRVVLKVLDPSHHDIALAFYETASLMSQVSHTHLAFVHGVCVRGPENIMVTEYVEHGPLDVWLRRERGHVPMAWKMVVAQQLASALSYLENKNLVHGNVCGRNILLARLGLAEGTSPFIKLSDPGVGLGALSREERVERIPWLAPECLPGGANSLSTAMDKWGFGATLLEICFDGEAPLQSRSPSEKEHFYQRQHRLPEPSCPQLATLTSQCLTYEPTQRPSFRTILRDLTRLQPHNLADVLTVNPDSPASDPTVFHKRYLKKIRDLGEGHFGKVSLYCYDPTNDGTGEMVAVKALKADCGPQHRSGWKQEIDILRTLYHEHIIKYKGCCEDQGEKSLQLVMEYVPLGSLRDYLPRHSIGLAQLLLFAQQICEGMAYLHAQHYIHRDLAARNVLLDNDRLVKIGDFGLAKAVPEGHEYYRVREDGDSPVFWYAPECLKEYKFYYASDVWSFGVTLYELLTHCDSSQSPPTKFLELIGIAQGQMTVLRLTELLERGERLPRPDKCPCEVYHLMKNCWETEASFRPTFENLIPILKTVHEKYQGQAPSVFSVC

On to `COc1c(F)cccc1-n1[nH]c(=O)c2cnc(Nc3ccc(F)cn3)cc21` [Compound I-100, 1-(3-fluoro-2-methoxyphenyl)-6-((5-fluoropyridin-2-yl)amino)-1,2-dihydro-3H-pyrazolo[4,3-c]pyridin-3-one], for which the IC50 in assay [1] and in assay [2] was greater than 90 µM in each case.
Regarding `O=c1[nH]n(-c2ccc(C(F)(F)F)cc2)c2cc(Nc3ccc(F)cn3)ncc12` [Compound I-67, 6-((5-fluoropyridin-2-yl)amino)-1-(4-(trifluoromethyl)phenyl)-1,2-dihydro-3H-pyrazolo[4,3-c]pyridin-3-one], the IC50 in assay [1] and in assay [2] was less than 10 µM in each case.
Turning to `COc1cc(-n2[nH]c(=O)c3cnc(Nc4cc(C)nc(C)n4)cc32)ccc1F` [Compound I-76, 6-((2,6-dimethylpyrimidin-4-yl)amino)-1-(4-fluoro-3-methoxyphenyl)-1,2-dihydro-3H-pyrazolo[4,3-c]pyridin-3-one], the IC50 in assay [1] and in assay [2] was less than 10 µM throughout.
Consider `Cc1cc(Nc2cc3c(cn2)c(=O)[nH]n3-c2cccc(-c3ncn(C)n3)c2)nc(C)n1` [Compound I-23, 6-((2,6-dimethylpyrimidin-4-yl)amino)-1-(3-(1-methyl-1H-1,2,4-triazol-3-yl)phenyl)-1,2-dihydro-3H-pyrazolo[4,3-c]pyridin-3-one], for which the IC50 in assay [1] was 10 to 30 µM; in assay [2], less than 10 µM.
As to `Cc1cc(Nc2cc3c(cn2)c(=O)[nH]n3-c2cc(Cl)cc(Cl)c2)nc(C)n1` [Compound I-96, 1-(3,5-dichlorophenyl)-6-((2,6-dimethylpyrimidin-4-yl)amino)-1,2-dihydro-3H-pyrazolo[4,3-c]pyridin-3-one], the IC50 is greater than 90 µM in assay [1] and less than 10 µM in assay [2].
For `COc1cc(-n2[nH]c(=O)c3cnc(Nc4ccc(F)cn4)cc32)ccc1Cl` [Compound I-79, 1-(4-chloro-3-methoxyphenyl)-6-((5-fluoropyridin-2-yl)amino)-1,2-dihydro-3H-pyrazolo[4,3-c]pyridin-3-one] the same measures were greater than 90 µM and greater than 90 µM.
For `COc1ccccc1-n1[nH]c(=O)c2cnc(Nc3ccc(F)cn3)cc21` [Compound I-16, 6-((5-fluoropyridin-2-yl)amino)-1-(2-methoxyphenyl)-1,2-dihydro-3H-pyrazolo[4,3-c]pyridin-3-one], the figures for the IC50 in assay [1] and in assay [2] were greater than 90 µM and 30 to 90 µM, respectively.
With `O=C(Nc1cc2c(cn1)c(=O)[nH]n2-c1cccc(C(F)(F)F)c1)C1CC1` [Compound I-58, N-(3-oxo-1-(3-(trifluoromethyl)phenyl)-2,3-dihydro-1H-pyrazolo[4,3-c]pyridin-6-yl)cyclopropanecarboxamide], the IC50 in assay [1] and in assay [2] was less than 10 µM each time.
With `CC(C)(C)OC(=O)Nc1cc2c(cn1)c(=O)[nH]n2-c1ccccc1` [Compound I-35, tert-butyl N-{3-oxo-1-phenyl-1H,2H,3H-pyrazolo[4,3-c]pyridin-6-yl}carbamate], the IC50 in assay [1] and in assay [2] was greater than 90 µM throughout.
With `COc1ccc(Nc2cc3c(cn2)c(=O)[nH]n3-c2cccc(OC)c2)nc1` [Compound I-41, 1-(3-methoxyphenyl)-6-((5-methoxypyridin-2-yl)amino)-1,2-dihydro-3H-pyrazolo[4,3-c]pyridin-3-one], the IC50 in assay [1] and in assay [2] was less than 10 µM throughout.
With `CS(=O)(=O)c1ccc(-n2[nH]c(=O)c3cnc(Nc4ccc(F)cn4)cc32)cc1` [Compound I-62, 6-((5-fluoropyridin-2-yl)amino)-1-(4-(methylsulfonyl)phenyl)-1,2-dihydro-3H-pyrazolo[4,3-c]pyridin-3-one], the IC50 in assay [1] was 30 to 90 µM; in assay [2], less than 10 µM.
For `COc1c(-n2[nH]c(=O)c3cnc(Nc4cc(C)nc(C)n4)cc32)cccc1C(F)(F)F` [Compound I-103, 6-((2,6-dimethylpyrimidin-4-yl)amino)-1-(2-methoxy-3-(trifluoromethyl)phenyl)-1,2-dihydro-3H-pyrazolo[4,3-c]pyridin-3-one] the same measures were greater than 90 µM and greater than 90 µM.
Turning to `N#Cc1ccc(-n2[nH]c(=O)c3cnc(Nc4ccc(F)cn4)cc32)cc1C(F)(F)F` [Compound I-92, 4-(6-((5-fluoropyridin-2-yl)amino)-3-oxo-2,3-dihydro-1H-pyrazolo[4,3-c]pyridin-1-yl)-2-(trifluoromethyl)benzonitrile], the IC50 in assay [1] and in assay [2] was less than 10 µM in each case.
Turning to `O=C(Nc1cc2c(cn1)c(=O)[nH]n2-c1cccc(OC(F)(F)F)c1)C1CC1` [Compound I-55, N-(3-oxo-1-(3-(trifluoromethoxy)phenyl)-2,3-dihydro-1H-pyrazolo[4,3-c]pyridin-6-yl)cyclopropanecarboxamide], the IC50 in assay [1] and in assay [2] was less than 10 µM throughout.
For the compound `COc1cc(-n2[nH]c(=O)c3cnc(Nc4ccc(F)cn4)cc32)ccc1C#N` [Compound I-81, 4-(6-((5-fluoropyridin-2-yl)amino)-3-oxo-2,3-dihydro-1H-pyrazolo[4,3-c]pyridin-1-yl)-2-methoxybenzonitrile], the IC50 in assay [1] was greater than 90 µM; in assay [2] it was less than 10 µM.
Taken in the same sequence, the figures for `COc1cc(-n2[nH]c(=O)c3cnc(Nc4cc(C)nc(C)n4)cc32)ccc1C#N` [Compound I-80, 4-(6-((2,6-dimethylpyrimidin-4-yl)amino)-3-oxo-2,3-dihydro-1H-pyrazolo[4,3-c]pyridin-1-yl)-2-methoxybenzonitrile] were greater than 90 µM and less than 10 µM.
Regarding `Cc1cc(Nc2cc3c(cn2)c(=O)[nH]n3-c2ccc(C#N)cc2)nc(C)n1` [Compound I-63, 4-(6-((2,6-dimethylpyrimidin-4-yl)amino)-3-oxo-2,3-dihydro-1H-pyrazolo[4,3-c]pyridin-1-yl)benzonitrile], the IC50 in assay [1] and in assay [2] was less than 10 µM each time.
As for `O=C(Nc1cc2c(cn1)c(=O)[nH]n2-c1cc(Cl)cc(Cl)c1)C1CC1` [Compound I-98, N-(1-(3,5-dichlorophenyl)-3-oxo-2,3-dihydro-1H-pyrazolo[4,3-c]pyridin-6-yl)cyclopropanecarboxamide], the values for the IC50 in assay [1] and in assay [2] were greater than 90 µM and less than 10 µM, respectively.
Taken in the same sequence, the figures for `COc1cccc(-n2[nH]c(=O)c3cnc(Nc4ccc(F)cn4)cc32)c1` [Compound I-39, 6-((5-fluoropyridin-2-yl)amino)-1-(3-methoxyphenyl)-1,2-dihydro-3H-pyrazolo[4,3-c]pyridin-3-one] were less than 10 µM and less than 10 µM.
For `Cc1cc(Nc2cc3c(cn2)c(=O)[nH]n3-c2cccc(C(F)(F)F)c2)nc(C)n1` [Compound I-57, 6-((2,6-dimethylpyrimidin-4-yl)amino)-1-(3-(trifluoromethyl)phenyl)-1,2-dihydro-3H-pyrazolo[4,3-c]pyridin-3-one] the same measures were less than 10 µM and less than 10 µM.
Consider `O=c1[nH]n(-c2cc(Cl)cc(Cl)c2)c2cc(Nc3ccc(F)cn3)ncc12` [Compound I-97, 1-(3,5-dichlorophenyl)-6-((5-fluoropyridin-2-yl)amino)-1,2-dihydro-3H-pyrazolo[4,3-c]pyridin-3-one], for which the IC50 in assay [2] is greater than 90 µM.
As to `Cc1cc(Nc2cc3c(cn2)c(=O)[nH]n3-c2cccc(S(C)(=O)=O)c2)nc(C)n1` [Compound I-27, 6-((2,6-dimethylpyrimidin-4-yl)amino)-1-(3-(methylsulfonyl)phenyl)-1,2-dihydro-3H-pyrazolo[4,3-c]pyridin-3-one], the IC50 in assay [2] is greater than 90 µM.
As to `Cc1cc(Nc2cc3c(cn2)c(=O)[nH]n3-c2ccc(C(N)=O)cc2)nc(C)n1` [Compound I-123, 4-(6-((2,6-dimethylpyrimidin-4-yl)amino)-3-oxo-2,3-dihydro-1H-pyrazolo[4,3-c]pyridin-1-yl)benzamide], the IC50 in assay [2] is greater than 90 µM.
`COc1cccc(-n2[nH]c(=O)c3cnc(NC(=O)C4(O)CC4)cc32)c1` [Compound I-124, 1-hydroxy-N-(1-(3-methoxyphenyl)-3-oxo-2,3-dihydro-1H-pyrazolo[4,3-c]pyridin-6-yl)cyclopropane-1-carboxamide]: in assay [2], the IC50 is less than 10 µM.
Consider `Cc1cc(Nc2cc3c(cn2)c(=O)[nH]n3-c2cccc(C(N)=O)c2)nc(C)n1` [Compound I-21, 3-(6-((2,6-dimethylpyrimidin-4-yl)amino)-3-oxo-2,3-dihydro-1H-pyrazolo[4,3-c]pyridin-1-yl)benzamide], for which, in assay [2], the IC50 is greater than 90 µM.
On the same count and under the same terms, the figure for `CC(C)N1CCN(c2cc3c(cn2)c(=O)[nH]n3-c2ccccc2)C1=O` [Compound I-13, 6-(3-isopropyl-2-oxoimidazolidin-1-yl)-1-phenyl-1,2-dihydro-3H-pyrazolo[4,3-c]pyridin-3-one] is 30 to 90 µM; for `O=C(Nc1cc2c(cn1)c(=O)[nH]n2-c1ccccc1)c1cccnc1` [Compound I-10, N-(3-oxo-1-phenyl-2,3-dihydro-1H-pyrazolo[4,3-c]pyridin-6-yl)nicotinamide] it is greater than 90 µM; for `COc1cccc(-n2[nH]c(=O)c3cnc(Nc4cc(C(F)(F)F)ccn4)cc32)c1` [Compound I-43, 1-(3-methoxyphenyl)-6-((4-(trifluoromethyl)pyridin-2-yl)amino)-1,2-dihydro-3H-pyrazolo[4,3-c]pyridin-3-one] it is greater than 90 µM.

In general, IC50 refers to the concentration needed to halve the response being measured.
